Data taken from PubChem BioAssay (NCI).
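Growth conditions: 96-well plates. Treatment: test compound, 48 hours, 5 concentrations. Analysis: linear interpolation between bracketing concentrations; unreached endpoints set to highest concentration. Here, GI50 denotes the concentration required for 50% inhibition of growth. The concentration for full growth arrest is given as TGI.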

How the values were obtained:
Assay in all cases: growth of human tumour cells (NCI), 48 h
HOP-62 NSCLC = system: HOP-62 NSCLC
SF-295 CNS = system: SF-295 CNS
MCF7 breast = system: MCF7 breast
786-0 renal = system: 786-0 renal
NCI-H522 lung = system: NCI-H522 lung
NCI-H23 lung = system: NCI-H23 lung
RPMI-8226 leukemia = system: RPMI-8226 leukemia
NCI/ADR-RES ovarian = system: NCI/ADR-RES ovarian
SNB-75 CNS = system: SNB-75 CNS
MALME-3M melanoma = system: MALME-3M melanoma
NCI-H460 lung = system: NCI-H460 lung
ACHN renal = system: ACHN renal
CCRF-CEM leukemia = system: CCRF-CEM leukemia
HL-60(TB) leukemia = system: HL-60(TB) leukemia
OVCAR-4 ovarian = system: OVCAR-4 ovarian
SR leukemia = system: SR leukemia
IGROV1 ovarian = system: IGROV1 ovarian
HCT-15 colon = system: HCT-15 colon
SK-MEL-2 melanoma = system: SK-MEL-2 melanoma
COLO 205 colon = system: COLO 205 colon
SNB-19 CNS = system: SNB-19 CNS
MDA-MB-435 = system: MDA-MB-435
TK-10 renal = system: TK-10 renal
CAKI-1 renal = system: CAKI-1 renal
OVCAR-5 ovarian = system: OVCAR-5 ovarian
K-562 leukemia = system: K-562 leukemia
UACC-257 melanoma = system: UACC-257 melanoma
BT-549 breast = system: BT-549 breast
SK-MEL-28 melanoma = system: SK-MEL-28 melanoma
MOLT-4 leukemia = system: MOLT-4 leukemia
SF-539 CNS = system: SF-539 CNS
HS 578T breast = system: HS 578T breast
KM12 colon = system: KM12 colon
NCI-H226 lung = system: NCI-H226 lung
SF-268 CNS = system: SF-268 CNS
HCT-116 colon = system: HCT-116 colon
UO-31 renal = system: UO-31 renal
A498 renal = system: A498 renal
T-47D breast = system: T-47D breast
HCC-2998 colon = system: HCC-2998 colon
PC-3 prostate = system: PC-3 prostate
SK-MEL-5 melanoma = system: SK-MEL-5 melanoma
LOX IMVI melanoma = system: LOX IMVI melanoma
MDA-MB-231 breast = system: MDA-MB-231 breast
UACC-62 melanoma = system: UACC-62 melanoma
OVCAR-8 ovarian = system: OVCAR-8 ovarian
HT29 colon = system: HT29 colon
EKVX NSCLC = system: EKVX NSCLC
SK-OV-3 ovarian = system: SK-OV-3 ovarian
RXF 393 renal = system: RXF 393 renal
M14 melanoma = system: M14 melanoma
DU-145 prostate = system: DU-145 prostate
U251 CNS = system: U251 CNS
SN12C renal = system: SN12C renal
OVCAR-3 ovarian = system: OVCAR-3 ovarian
SW-620 colon = system: SW-620 colon
A549 NSCLC = system: A549 NSCLC

Question: Which results are given for Cc1c(C(=O)OCc2ccccc2)[n+](=O)c2cc(F)c(F)cc2n1[O-]?
Answer: TGI (HOP-62 NSCLC): > 100 µM; TGI (SF-295 CNS): 4.06 µM; TGI (MCF7 breast): 6.32 µM; TGI (786-0 renal): > 100 µM; TGI (NCI-H522 lung): 3.96 µM; TGI (NCI-H23 lung): 6.27 µM; TGI (RPMI-8226 leukemia): > 100 µM; TGI (NCI/ADR-RES ovarian): > 100 µM; TGI (SNB-75 CNS): 4.68 µM; TGI (MALME-3M melanoma): 4.48 µM; TGI (NCI-H460 lung): 6.6 µM; TGI (ACHN renal): 3.85 µM; TGI (CCRF-CEM leukemia): > 100 µM; TGI (HL-60(TB) leukemia): 3.53 µM; TGI (OVCAR-4 ovarian): 3.53 µM; TGI (SR leukemia): 3.19 µM; TGI (IGROV1 ovarian): 3.3 µM; TGI (HCT-15 colon): > 100 µM; TGI (SK-MEL-2 melanoma): 3.51 µM; TGI (COLO 205 colon): 9.62 µM; TGI (SNB-19 CNS): 3.87 µM; TGI (MDA-MB-435): 3.94 µM; TGI (TK-10 renal): 37.7 µM; TGI (CAKI-1 renal): 3.92 µM; TGI (OVCAR-5 ovarian): > 100 µM; TGI (K-562 leukemia): > 100 µM; TGI (UACC-257 melanoma): 4 µM; TGI (BT-549 breast): 3.62 µM; TGI (SK-MEL-28 melanoma): 4.07 µM; TGI (MOLT-4 leukemia): 5.5 µM; TGI (SF-539 CNS): 5.75 µM; TGI (HS 578T breast): 2.97 µM; TGI (KM12 colon): 39.4 µM; TGI (NCI-H226 lung): 6.74 µM; TGI (SF-268 CNS): 4.53 µM; TGI (HCT-116 colon): > 100 µM; TGI (UO-31 renal): 3.36 µM; TGI (A498 renal): 3.12 µM; TGI (T-47D breast): 4.86 µM; TGI (HCC-2998 colon): 4.68 µM

Question: Which results are given for O=C(Nc1cc(S(=O)(=O)c2ccc(Cl)cc2)ccc1Cl)c1cc(I)cc(I)c1O?
Answer: GI50 (HOP-62 NSCLC): 18.6 µM; TGI (HOP-62 NSCLC): 34.1 µM; GI50 (SF-295 CNS): 15.1 µM; TGI (SF-295 CNS): 32 µM; GI50 (MCF7 breast): 18.4 µM; TGI (MCF7 breast): 36.9 µM; GI50 (786-0 renal): 15.6 µM; TGI (786-0 renal): 30 µM; GI50 (NCI-H522 lung): 11.8 µM; TGI (NCI-H522 lung): 26.6 µM; GI50 (NCI-H23 lung): 16.5 µM; TGI (NCI-H23 lung): 33.9 µM; GI50 (RPMI-8226 leukemia): 0.0515 µM; TGI (RPMI-8226 leukemia): 0.833 µM; GI50 (PC-3 prostate): 14.4 µM; TGI (PC-3 prostate): 28.6 µM; GI50 (NCI/ADR-RES ovarian): 18.7 µM; TGI (NCI/ADR-RES ovarian): 44.6 µM; GI50 (SK-MEL-5 melanoma): 14.9 µM; TGI (SK-MEL-5 melanoma): 28.3 µM; GI50 (SNB-75 CNS): 19.7 µM; TGI (SNB-75 CNS): 43.1 µM; GI50 (MALME-3M melanoma): 21.1 µM; TGI (MALME-3M melanoma): 48.5 µM; GI50 (LOX IMVI melanoma): 18.2 µM; TGI (LOX IMVI melanoma): 38.7 µM; GI50 (NCI-H460 lung): 15.2 µM; TGI (NCI-H460 lung): 38.5 µM; GI50 (ACHN renal): 17.1 µM; TGI (ACHN renal): 36 µM; GI50 (HL-60(TB) leukemia): 14.5 µM; TGI (HL-60(TB) leukemia): 31.6 µM; GI50 (MDA-MB-231 breast): 17.4 µM; TGI (MDA-MB-231 breast): 36.5 µM; GI50 (OVCAR-4 ovarian): 17.2 µM; TGI (OVCAR-4 ovarian): 33.5 µM; GI50 (SR leukemia): 26 µM; TGI (SR leukemia): 60.1 µM; GI50 (IGROV1 ovarian): 20 µM; TGI (IGROV1 ovarian): 37.7 µM; GI50 (HCT-15 colon): 16.5 µM; TGI (HCT-15 colon): 32.7 µM; GI50 (UACC-62 melanoma): 4.2 µM; TGI (UACC-62 melanoma): 15.5 µM; GI50 (SK-MEL-2 melanoma): 16.6 µM; TGI (SK-MEL-2 melanoma): 39.4 µM; GI50 (COLO 205 colon): 15.8 µM; TGI (COLO 205 colon): 29.6 µM; GI50 (SNB-19 CNS): 14.9 µM; TGI (SNB-19 CNS): 29.3 µM; GI50 (MDA-MB-435): 17.4 µM; TGI (MDA-MB-435): 37.8 µM; GI50 (OVCAR-8 ovarian): 18.6 µM; TGI (OVCAR-8 ovarian): 41.7 µM; GI50 (TK-10 renal): 18.1 µM; TGI (TK-10 renal): 34.2 µM; GI50 (CAKI-1 renal): 20.3 µM; TGI (CAKI-1 renal): 38.2 µM; GI50 (OVCAR-5 ovarian): 18.3 µM; TGI (OVCAR-5 ovarian): 38.2 µM; GI50 (HT29 colon): 16.4 µM; TGI (HT29 colon): 30.2 µM; GI50 (K-562 leukemia): 16 µM; TGI (K-562 leukemia): 40.9 µM; GI50 (UACC-257 melanoma): 18.4 µM; TGI (UACC-257 melanoma): 42.1 µM; GI50 (EKVX NSCLC): 20.2 µM; TGI (EKVX NSCLC): 44.5 µM; GI50 (BT-549 breast): 19.9 µM; TGI (BT-549 breast): 39.8 µM; GI50 (SK-OV-3 ovarian): 17.2 µM; TGI (SK-OV-3 ovarian): 31.5 µM; GI50 (SK-MEL-28 melanoma): 9.38 µM; TGI (SK-MEL-28 melanoma): 24.6 µM; GI50 (MOLT-4 leukemia): 19.3 µM; TGI (MOLT-4 leukemia): 41 µM; GI50 (SF-539 CNS): 18.6 µM; TGI (SF-539 CNS): 38.2 µM; GI50 (RXF 393 renal): 15.1 µM; TGI (RXF 393 renal): 35.5 µM; GI50 (HS 578T breast): 17.8 µM; TGI (HS 578T breast): 47.6 µM; GI50 (M14 melanoma): 17.6 µM; TGI (M14 melanoma): 35 µM; GI50 (KM12 colon): 14.2 µM; TGI (KM12 colon): 27.4 µM; GI50 (DU-145 prostate): 17.2 µM; TGI (DU-145 prostate): 30.9 µM; GI50 (NCI-H226 lung): 26.8 µM; TGI (NCI-H226 lung): 69.1 µM; GI50 (SF-268 CNS): 18.5 µM; TGI (SF-268 CNS): 40.4 µM; GI50 (HCT-116 colon): 14.3 µM; TGI (HCT-116 colon): 27.7 µM; GI50 (U251 CNS): 15.3 µM; TGI (U251 CNS): 30.8 µM; GI50 (UO-31 renal): 20.9 µM; TGI (UO-31 renal): 38.8 µM; GI50 (SN12C renal): 16.1 µM; TGI (SN12C renal): 34.8 µM; GI50 (OVCAR-3 ovarian): 17 µM; TGI (OVCAR-3 ovarian): 34.2 µM; GI50 (A498 renal): 15.3 µM; TGI (A498 renal): 31.6 µM; GI50 (SW-620 colon): 16.7 µM; TGI (SW-620 colon): 32 µM; GI50 (A549 NSCLC): 19.3 µM; TGI (A549 NSCLC): 38.2 µM; GI50 (HCC-2998 colon): 13.2 µM; TGI (HCC-2998 colon): 27.2 µM
